Data: patent US20090221559A1 (priority 2005, published 2009)

Tests used:
[1] = target: T1, HCV NS5B polymerase (His-tagged, C-terminal 21 amino acid deleted NS5B, HC-J4) (Hepatitis C virus genotype 1b, UniProt O92972); test: NS5b polymerase assay (biochemical RdRp assay, 3H-GTP incorporation, SPA beads); design: species or system HCV genotype 1b; conditions: NS5B Polymerase Assay IC50 (μM)
T1 construct: The cDNA encoding NS5B amino acid 1-570 (HC-J4, genotype 1b); His tag (His6, from pET-21b) (C); made in house; host or cells: E. coli BL21 (DE3)
T1 sequence (O92972 2417-3000, looked up, stated change not applied): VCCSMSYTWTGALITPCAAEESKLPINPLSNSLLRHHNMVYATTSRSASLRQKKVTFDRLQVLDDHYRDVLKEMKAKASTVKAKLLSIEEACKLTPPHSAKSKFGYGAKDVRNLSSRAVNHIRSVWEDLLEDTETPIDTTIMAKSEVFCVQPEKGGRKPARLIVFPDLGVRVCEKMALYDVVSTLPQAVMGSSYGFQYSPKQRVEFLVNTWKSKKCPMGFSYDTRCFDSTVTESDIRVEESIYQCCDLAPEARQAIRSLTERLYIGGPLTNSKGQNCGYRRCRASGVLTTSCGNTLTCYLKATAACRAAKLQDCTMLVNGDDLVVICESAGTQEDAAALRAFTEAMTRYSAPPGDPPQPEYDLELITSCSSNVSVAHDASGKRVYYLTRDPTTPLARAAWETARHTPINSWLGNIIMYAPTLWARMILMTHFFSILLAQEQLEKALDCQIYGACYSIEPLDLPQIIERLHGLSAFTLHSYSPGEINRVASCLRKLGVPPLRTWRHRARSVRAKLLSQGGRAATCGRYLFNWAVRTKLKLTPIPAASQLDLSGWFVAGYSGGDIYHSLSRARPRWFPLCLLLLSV
Summary of the method: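 His-tagged C-terminal-21-aa-deleted NS5B (genotype 1b, HC-J4) at 200 nM was preincubated 15 min at RT with compound on 5′-biotinylated oligo(rG13)/poly(rC) template/primer before NTPs. Reaction with 600 nM GTP plus 0.1 μCi 3H-GTP and 5 mM MgCl2 in Tris pH 7.5 ran 2 h at 25 °C. Stopped with EDTA/SPA beads for incorporation counting.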

[2] = test system: HCV replicon RNA replication in Huh-7 luc/neo (Huh-Luc) cells; test: HCV replicon assay (stable replicon cell reporter assay, luciferase read-out); format: cell-based, HCV type 1b; conditions: Hepatitis C virus, Huh-7, 72 h, read-out: Replicon Assay EC50 (μM), Huh-Luc cells, incubation of three days, luciferase activity
Summary of the method: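 Huh-7 cells stably carry a bicistronic HCV 1b NS3-NS5B subgenomic replicon with firefly luciferase and neo markers. Cells were plated with compound across a concentration range and incubated three days. Replication was measured as luciferase activity to give dose-response curves.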

SMILES | IC50 [1] [µM] | EC50 [2] [µM]
CC1(C)CC(=O)C2=C(C1)Nc1ccccc1NC2c1ccc(Cl)cc1Cl (stereo not shown) [compound 423, 11-(2,4-dichlorophenyl)-2,3,4,5,10,11-hexahydro-3,3-dimethyl-1H-dibenzo[b,e][1,4]diazepin-1-one] | 37.9 | 26.4
COc1ccc(C2Nc3ccccc3NC3=C2C(=O)CC(C)(C)C3)cc1OCc1ccccc1 (stereo not shown) [compound 424] | 11.6 | 12.5
CC1(C)CC(=O)C2=C(C1)Nc1ccccc1NC2c1ccccc1OCc1ccccc1 (stereo not shown) [compound 425] | > 42.7 | 13.2
CC1(C)CC(=O)C2=C(C1)Nc1ccccc1NC2c1ccc(OCc2ccccc2)cc1 (stereo not shown) [compound 426] | 30.8 | 7.31
CC1(C)CC(=O)C2=C(C1)Nc1ccccc1NC2c1cccc(Cl)c1Cl (stereo not shown) [compound 427] | > 42.7 | 20.7
CC1(C)CC(=O)C2=C(C1)Nc1ccccc1NC2c1c(F)cccc1Cl (stereo not shown) [compound 428] | > 42.7 | 16
CC1(C)CC(=O)C2=C(C1)Nc1ccccc1NC2c1ccc(C(F)(F)F)cc1 (stereo not shown) [compound 429] | > 42.7 | > 31
COc1ccc(C2Nc3ccccc3NC3=C2C(=O)CC(C)(C)C3)cc1COc1ccc(F)cc1F (stereo not shown) [compound 430] | > 33.3 | 10.8
CC1(C)CC(=O)C2=C(C1)Nc1ccccc1NC2c1cccc(OC(=O)c2ccc(Cl)cc2)c1 (stereo not shown) [compound 431, 11-[3-(4-Chlorobenzoyloxy)phenyl]-3,3-dimethyl-2,3,4,5,10,11-hexahydro-dibenzo[b,e][1,4]diazepin-1-one] | 82.9 | > 100
CC1(C)CC(=O)C2=C(C1)Nc1ccccc1NC2c1ccccc1C(=O)O (stereo not shown) [compound 432] | > 42.7 | 17.7
CC1(C)CC(=O)C2=C(C1)Nc1ccccc1NC2c1cccc(Oc2ccccc2)c1 (stereo not shown) [compound 433, 11-(3-phenoxyphenyl)-3,3-dimethyl-2,3,4,5,10,11-hexahydro-1H-dibenzo[b,e][1,4]diazepin-1-one] | > 133 | 3.81
CC1(C)CC(=O)C2=C(C1)Nc1ccccc1NC2c1ccc(OC(F)(F)F)cc1 (stereo not shown) [compound 434, 11-(4-trifluoromethyloxyphenyl)-3,3-dimethyl-2,3,4,5,10,11-hexahydro-1H-dibenzo[b,e][1,4]diazepin-1-one] | > 133 | 22.9
CC1(C)CC(=O)C2=C(C1)Nc1ccccc1NC2c1ccc(Oc2ccccc2)cc1 (stereo not shown) [compound 435, 11-(4-phenoxyphenyl)-3,3-dimethyl-2,3,4,5,10,11-hexahydro-1H-dibenzo[b,e][1,4]diazepin-1-one] | > 133 | 6.7
CC1(C)CC(=O)C2=C(C1)Nc1ccccc1NC2c1cc(Cl)cc(Cl)c1 (stereo not shown) [compound 436, 11-[3,5-dichlorophenyl]-3,3-dimethyl-2,3,4,5,10,11-hexahydro-1H-dibenzo[b,e][1,4]diazepin-1-one] | > 133 | 19.7
CC1(C)CC(=O)C2=C(C1)Nc1ccccc1NC2c1cccc(OCc2ccccc2)c1 (stereo not shown) [compound 437, 11-(3-benzyloxyphenyl)-3,3-dimethyl-2,3,4,5,10,11-hexahydro-1H-dibenzo[b,e][1,4]diazepin-1-one] | 32.9 | 6.35
CC1(C)CC(=O)C2=C(C1)Nc1ccccc1NC2c1cc(Cl)ccc1Cl (stereo not shown) [compound 438, 11-[2,5-dichlorophenyl]-3,3-dimethyl-2,3,4,5,10,11-hexahydro-1H-dibenzo[b,e][1,4]diazepin-1-one] | > 133 | 15.4
CC1(C)CC(=O)C2=C(C1)Nc1ccccc1NC2c1ccc(OCc2ccccc2)c(Cl)c1 (stereo not shown) [compound 439, 11-[4-benzyloxy-3-chlorophenyl]-3,3-dimethyl-2,3,4,5,10,11-hexahydro-1H-dibenzo[b,e][1,4]diazepin-1-one] | 3.63 | 4.33
CC1(C)CC(=O)C2=C(C1)Nc1ccccc1NC2c1ccc(O)cc1 (stereo not shown) [compound 440, 3,3-dimethyl-11-(4-hydroxyphenyl)-2,3,4,5,10,11-hexahydro-1H-dibenzo[b,e][1,4]diazepin-1-one] | > 133 | > 100
CC1(C)CC(=O)C2=C(C1)Nc1ccccc1NC2c1ccc(F)cc1F (stereo not shown) [compound 441, 11-(2,4-difluorophenyl)-3,3-dimethyl-2,3,4,5,10,11-hexahydro-1H-dibenzo[b,e][1,4]diazepin-1-one] | > 133 | > 100
CC1(C)CC(=O)C2=C(C1)Nc1ccccc1NC2c1ccc(Oc2ccccc2Br)cc1 (stereo not shown) [compound 442, 11-[4-(2-bromophenoxy)phenyl]-3,3-dimethyl-2,3,4,5,10,11-hexahydro-1H-dibenzo[b,e][1,4]diazepin-1-one] | > 133 | 2.71
CC1(C)CC(=O)C2=C(C1)Nc1ccccc1NC2c1ccc(OCc2ccccc2)cc1Cl (stereo not shown) [compound 443] | 0.312 | 1.78

SMILES | IC50 [1] [µM] | EC50 [2] [µM]
CC1(C)CC(=O)C2=C(C1)Nc1ccccc1NC2c1cc(Cl)c(OCc2ccccc2)c(Cl)c1 (stereo not shown) [compound 444, 11-[4-benzyloxy-3,5-dichlorophenyl]-3,3-dimethyl-2,3,4,5,10,11-hexahydro-1H-dibenzo[b,e][1,4]diazepin-1-one] | 33.2 | 4.45
CC1(C)CC(=O)C2=C(C1)Nc1ccccc1NC2c1ccc(OCc2ccccc2)cc1OCc1ccccc1 (stereo not shown) [compound 445, 11-[2,4-dibenzyloxyphenyl]-3,3-dimethyl-2,3,4,5,10,11-hexahydro-1H-dibenzo[b,e][1,4]diazepin-1-one] | > 133 | 1.98
CC1(C)CC(=O)C2=C(C1)Nc1ccccc1NC2c1cccc(Oc2ccccc2Br)c1 (stereo not shown) [compound 446, 11-[3-(2-bromophenoxy)phenyl]-3,3-dimethyl-2,3,4,5,10,11-hexahydro-1H-dibenzo[b,e][1,4]diazepin-1-one] | > 133 | 4.12
CC1(C)CC(=O)C2=C(C1)Nc1ccccc1NC2c1c(Cl)cc(OCc2ccccc2)cc1Cl (stereo not shown) [compound 447, 11-(4-benzyloxy-2,6-dichlorophenyl)-3,3-dimethyl-2,3,4,5,10,11-hexahydro-1H-dibenzo[b,e][1,4]diazepin-1-one] | > 133 | 2.52
CC1(C)CC(=O)C2=C(C1)Nc1ccccc1NC2c1ccc([N+](=O)[O-])cc1 (stereo not shown) [compound 448] | > 133 | > 100
Cc1cc2c(cc1C)NC(c1ccc(Cl)c([N+](=O)[O-])c1)C1=C(CC(C)(C)CC1=O)N2 (stereo not shown) [compound 452] | > 42.7 | 19.7
COc1ccc(C2Nc3ccc(C(=O)c4ccccc4)cc3NC3=C2C(=O)CC(C)(C)C3)cc1OC (stereo not shown) [compound 453] | > 42.7 | 19.2
Cc1cc2c(cc1C)NC(c1c(F)cccc1F)C1=C(CC(C)(C)CC1=O)N2 (stereo not shown) [compound 454] | > 42.7 | 3.44
CC1(C)CC(=O)C2=C(C1)Nc1cc(C(=O)c3ccccc3)ccc1NC2c1ccccc1Cl (stereo not shown) [compound 463] | > 33.3 | 7.43
Cc1cc2c(cc1C)NC(c1ccc(Cl)cc1Cl)C1=C(CC(C)(C)CC1=O)N2 (stereo not shown) [compound 464, 11-(2,4-Dichlorophenyl)-2,3,4,5,10,11-hexahydro-3,3,7,8-tetramethyl-1H-dibenzo[b,e][1,4]diazepin-1-one] | > 133 | 82.7
CC1(C)CC(=O)C2=C(C1)Nc1cc(Cl)c(Cl)cc1NC2c1ccc(Cl)cc1Cl (stereo not shown) [compound 465, 7,8-Dichloro-11-(2,4-dichlorophenyl)-2,3,4,5,10,11-hexahydro-3,3-dimethyl-1H-dibenzo[b,e][1,4]diazepin-1-one] | 60 | 3.84
CC1(C)CC(=O)C2=C(C1)Nc1cc(F)c(F)cc1NC2c1ccc(Cl)cc1Cl (stereo not shown) [compound 466, 7,8-difluoro-11-(2,4-dichlorophenyl)-3,3-dimethyl-2,3,4,5,10,11-hexahydro-1H-dibenzo[b,e][1,4]diazepin-1-one] | 68.1 | 6.81
COc1cc2c(cc1OC)NC(c1ccc(Cl)cc1Cl)C1=C(CC(C)(C)CC1=O)N2 (stereo not shown) [compound 467, 7,8-dimethoxy-11-(2,4-dichlorophenyl)-3,3-dimethyl-2,3,4,5,10,11-hexahydro-1H-dibenzo[b,e][1,4]diazepin-1-one] | > 133 | 30
CC1(C)CC(=O)C2=C(C1)Nc1ccc(C#N)cc1NC2c1ccc(Cl)cc1Cl (stereo not shown) [compound 473] | 50 | 20
O=C1C[C@@H](c2ccc3c(c2)OCO3)CC2=C1[C@H](c1cccnc1)Nc1ccccc1N2 [compound 476] | > 42.7 | 22.9
CCn1c2ccccc2c2cc([C@@H]3Nc4ccccc4NC4=C3C(=O)C[C@@H](c3ccc(OC)c(OC)c3)C4)ccc21 [compound 477] | > 42.7 | 4.49
CCn1c2ccccc2c2cc([C@@H]3Nc4ccccc4NC4=C3C(=O)C[C@@H](c3ccc(Cl)cc3)C4)ccc21 [compound 480] | > 42.7 | 5.7
O=C1C[C@@H](c2ccccc2)CC2=C1[C@H](c1cc3c(cc1Br)OCO3)Nc1ccccc1N2 [compound 481] | > 42.7 | 1.61
O=C1C[C@@H](c2ccc(Cl)cc2)CC2=C1[C@H](c1c[nH]c3ccccc13)Nc1ccccc1N2 [compound 482] | > 42.7 | 27
O=C1C[C@@H](c2ccc(Cl)cc2)CC2=C1[C@H](c1cccnc1)Nc1ccccc1N2 [compound 483] | > 42.7 | 15.5
